By IC50 is commonly meant the concentration that inhibits the measured activity by half.

Bounds are passed on as bounds.

This passage reports IC50 results from patent US11578061B2, “Inhibitors of LRRK2 kinase” (Halia Therapeutics, Inc., priority 2021, dated 2023).

recombinant human LRRK2 (catalytic domain only [amino acids 970-2527], GST-tagged), sequence (Q5S007 970-2527): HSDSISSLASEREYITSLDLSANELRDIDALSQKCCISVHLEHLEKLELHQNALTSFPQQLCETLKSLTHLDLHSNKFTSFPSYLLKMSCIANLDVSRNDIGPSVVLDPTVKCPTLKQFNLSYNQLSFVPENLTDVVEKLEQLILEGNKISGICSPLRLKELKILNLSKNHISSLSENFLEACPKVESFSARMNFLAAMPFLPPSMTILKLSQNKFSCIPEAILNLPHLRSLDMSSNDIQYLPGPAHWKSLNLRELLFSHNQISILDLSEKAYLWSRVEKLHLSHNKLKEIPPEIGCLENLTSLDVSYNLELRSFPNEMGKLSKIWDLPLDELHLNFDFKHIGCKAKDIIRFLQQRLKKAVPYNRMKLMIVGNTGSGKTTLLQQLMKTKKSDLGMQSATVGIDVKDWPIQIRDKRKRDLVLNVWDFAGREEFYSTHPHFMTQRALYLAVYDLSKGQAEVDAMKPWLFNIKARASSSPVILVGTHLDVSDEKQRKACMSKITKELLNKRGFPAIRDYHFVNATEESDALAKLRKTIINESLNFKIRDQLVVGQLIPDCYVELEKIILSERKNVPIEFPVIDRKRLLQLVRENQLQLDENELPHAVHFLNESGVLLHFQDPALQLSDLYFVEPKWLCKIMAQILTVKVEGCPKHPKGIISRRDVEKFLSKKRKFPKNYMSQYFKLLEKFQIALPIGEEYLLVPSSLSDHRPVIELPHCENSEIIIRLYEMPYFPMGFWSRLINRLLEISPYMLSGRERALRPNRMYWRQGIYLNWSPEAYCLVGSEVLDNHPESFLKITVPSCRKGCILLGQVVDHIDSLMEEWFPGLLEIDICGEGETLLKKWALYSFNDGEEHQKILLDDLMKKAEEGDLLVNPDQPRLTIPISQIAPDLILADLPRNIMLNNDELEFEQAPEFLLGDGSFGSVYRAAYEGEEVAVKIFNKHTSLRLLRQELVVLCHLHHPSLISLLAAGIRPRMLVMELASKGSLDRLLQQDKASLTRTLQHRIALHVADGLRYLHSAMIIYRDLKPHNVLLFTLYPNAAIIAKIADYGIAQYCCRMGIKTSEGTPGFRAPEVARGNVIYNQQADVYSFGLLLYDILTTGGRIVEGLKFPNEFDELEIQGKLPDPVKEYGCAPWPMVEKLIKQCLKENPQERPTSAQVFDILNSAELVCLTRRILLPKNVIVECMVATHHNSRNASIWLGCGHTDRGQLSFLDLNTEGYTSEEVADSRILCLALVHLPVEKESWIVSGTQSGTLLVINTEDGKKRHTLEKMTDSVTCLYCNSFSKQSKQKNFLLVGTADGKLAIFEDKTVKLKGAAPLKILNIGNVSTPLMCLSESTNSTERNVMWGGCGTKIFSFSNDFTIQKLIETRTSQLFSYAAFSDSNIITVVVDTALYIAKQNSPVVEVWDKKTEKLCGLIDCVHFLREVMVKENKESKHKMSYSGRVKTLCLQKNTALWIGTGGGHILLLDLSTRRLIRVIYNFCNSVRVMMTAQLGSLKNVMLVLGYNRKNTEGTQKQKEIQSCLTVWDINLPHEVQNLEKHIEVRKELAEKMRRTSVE

The test has as its target recombinant human LRRK2 (catalytic domain only [amino acids 970-2527], GST-tagged) (Homo sapiens (Human), UniProt Q5S007). The test is described as follows: LRRK2 Enzymatic Assay. Format: biochemical. To be noted: LRRKtide substrate, [32P]-ATP. A digest of the protocol:
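Radiometric P81 filter-binding read-out of [32P]-ATP transfer to LRRKtide (20 μM) by 30 nM GST-LRRK2 970-2527, 2 h at room temperature after 20 min compound preincubation (10 μM–0.5 nM, 1% DMSO). IC50 derived from % remaining activity versus DMSO.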
In the case of `CC(=O)N[C@H]1CC[C@H](COc2nc(Nc3cn(C(C)(C)C#N)nc3C)ncc2F)CC1` [Example 84, N-((1R,4R)-4-(((2-((1-(2-cyanopropan-2-yl)-3-methyl-1H-pyrazol-4-yl)amino)-5-fluoropyrimidin-4-yl)oxy)methyl)cyclo-hexyl)acetamide], the IC50 was under 50 nM.

As for `Cc1nn(C(C)(C)C#N)cc1Nc1ncc(Cl)c(OCC2CCC(C(F)(F)F)CC2)n1` (centres unmarked) [Example 157, 2-(4-((5-chloro-4-((4-(trifluoromethyl)cyclohexyl)methoxy)pyrimidin-2-yl)amino)-3-methyl-1H-pyrazol-1-yl)-2-methylpropanenitrile], the IC50 lay in the range of 50 to 200 nM.

As to `CC(=O)N1CCC(COc2nc(Nc3cn(C(C)(C)C#N)nc3C)ncc2F)C(F)C1` (single isomer, unassigned) [Example 177, 2-(4-((4-((1-acetyl-3-fluoropiperidin-4-yl)methoxy)-5-fluoropyrimidin-2-yl)amino)-3-methyl-1H-pyrazol-1-yl)-2-methylpropanenitrile], the IC50 is over 400 nM.

Consider `Cc1nn(C2CC(C#N)C2)cc1Nc1ncc(Cl)c(OCC2CCOC(C)(C)C2)n1` (centres unmarked) [Example 150, 3-(4-((5-chloro-4-((2,2-dimethyltetrahydro-2H-pyran-4-yl)methoxy)pyrimidin-2-yl)amino)-3-methyl-1H-pyrazol-1-yl)cyclobutane-1-carbonitrile], for which the IC50 is 50 to 200 nM.

In the case of `N#CC1CCC(COc2nc(Nc3ccc(N4CCOCC4)cc3)ncc2F)CC1` (racemic) [Example 272, 4-(((5-fluoro-2-((4-morpholinophenyl)amino)pyrimidin-4-yl)oxy)methyl)cyclohexane-1-carbonitrile], the IC50 is under 50 nM.

Take `O[C@H]1CC[C@H](COc2nc(Nc3ccc(N4CCOCC4)cc3)nc(Cl)c2F)CC1` [Example 246, (1R,4R)-4-(((6-chloro-5-fluoro-2-((4-morpholinophenyl)amino)pyrimidin-4-yl)oxy)methyl)cyclohexan-1-ol]: the IC50 was over 400 nM.

With `CN[C@H]1CC[C@H](COc2nc(Nc3cn(C(C)(C)C#N)nc3C)ncc2Cl)CC1` [Example 39, 2-(4-((5-chloro-4-(((1R,4R)-4-(methylamino)cyclo-hexyl)methoxy)py-rimidin-2-yl)amino)-3-methyl-1H-pyrazol-1-yl)-2-methylpropanenitrile], the IC50 is under 50 nM.

Consider `Cc1nn(C2CC(C#N)C2)cc1Nc1ncc(Cl)c(OCC2CCN(C)CC2F)n1` (centres unmarked) [Example 63, 3-(4-((5-chloro-4-((3-fluoro-1-methylpiperidin-4-yl)methoxy)pyrimidin-2-yl)amino)-3-methyl-1H-pyrazol-1-yl)cyclobutane-1-carbonitrile], for which the IC50 is over 400 nM.

`COc1cnc(Nc2ccc(N3CCOCC3)cc2)nc1OCC1CCC(F)(F)CC1` [Example 156, 4-((4,4-difluorocyclohexyl)methoxy)-5-methoxy-N-(4-morpholinophenyl)pyrimidin-2-amine]: the IC50 lay in the range of 50 to 200 nM.

As for `CC(=O)N[C@H]1CC[C@H](COc2nc(Nc3cn(C4CC4)nc3Cl)ncc2F)CC1` [Example 203, N-((1R,4R)-4-(((2-((3-chloro-1-cyclopropyl-1H-pyrazol-4-yl)amino)-5-fluoropyrimidin-4-yl)oxy)methyl)cyclo-hexyl)acetamide], the IC50 is under 50 nM.

Regarding `CN[C@H]1CC[C@H](COc2nc(Nc3cc(F)c(C(=O)N4CCOCC4)cc3OC)ncc2OC)CC1` [Example 36], the IC50 is under 50 nM.

For the molecule `CCn1cc(Nc2ncc(F)c(OC[C@H]3CC[C@H](O)CC3)n2)cn1` [Example 217, (1R,4R)-4-(((2-((1-ethyl-1H-pyrazol-4-yl)amino)-5-fluoropyrimidin-4-yl)oxy)methyl)cyclohexan-1-ol], the IC50 fell in the range of 50 to 200 nM.

Regarding `C[C@@H]1CN(c2ccc(Nc3ncc(F)c(OCC4(F)CCNCC4)n3)cc2)C[C@H](C)O1` [Example 23, N-(4-((2R,6S)-2,6-dimethylmorpholino)phenyl)-5-fluoro-4-((4-fluoropiperidin-4-yl)methoxy) pyrimidin-2-amine], the IC50 was under 50 nM.

`O=C(N1CCC(COc2nc(Nc3ccc(N4CCOCC4)cc3)ncc2Cl)CC1)C(F)(F)F` [Example 112, 1-(4-(((5-chloro-2-((4-morpholino-phenyl)amino)pyrimidin-4-yl)oxy)methyl)piperidin-1-yl)-2,2,2-trifluoro-ethan-1-one]: the IC50 was 50 to 200 nM.

As to `Cc1nn(C2CC(C#N)C2)cc1Nc1ncc(Cl)c(OCC2CC3(COC3)C2)n1` (centres unmarked) [Example 151, 3-(4-((4-((2-oxaspiro[3.3]heptan-6-yl)methoxy)-5-chloropyrimidin-2-yl)amino)-3-methyl-1H-pyrazol-1-yl)cyclobutane-1-carbonitrile], the IC50 was under 50 nM.

Turning to `CCc1nn(C)cc1Nc1ncc(F)c(OC[C@H]2CC[C@H](NC(C)=O)CC2)n1` [Example 198, N-((1R,4R)-4-(((2-((3-ethyl-1-methyl-1H-pyrazol-4-yl)amino)-5-fluoropyrimidin-4-yl)oxy)methyl)cyclo-hexyl)acetamide], the IC50 is under 50 nM.

For the molecule `CC(=O)N[C@H]1CC[C@H](COc2nc(Nc3cn(C4CC4)nc3C)ncc2F)CC1` [Example 196, N-((1R,4R)-4-(((2-((1-cyclopropyl-3-methyl-1H-pyrazol-4-yl)amino)-5-fluoropyrimidin-4-yl)oxy)methyl)cyclo-hexyl)acetamide], the IC50 is under 50 nM.
